In data set [1] the test system is Mus musculus. In words: Antiinflammatory activity against LPS-induced septic shock mouse model assessed as improvement in survival at 20 mg/kg, po pretreated 1 hr before LPS administration measured upto 96 hrs. The class given is functional, organism-based. Conditions: time <= 97.0 hrs.
Data set [2] in a line: Subacute toxicity in ICR mouse assessed as pathological change in liver at 500 to 100 mg/kg, IG measured for 10 days by hematoxylin and eosin dye based light microscopy. Type of data set: organism-based. Conditions: in vivo, po, 240 h, dose 500-100 mg/kg, time 10 day.
Data set [3] is described as follows: Subacute toxicity in ICR mouse assessed as pathological change in heart at 500 to 100 mg/kg, IG measured for 10 days by hematoxylin and eosin dye based light microscopy. Type of data set: organism-based. Conditions: in vivo, po, 240 h, dose 500-100 mg/kg, time 10 day.
Data set [4] deals with Mus musculus. In words: Antiinflammatory activity against LPS-induced acute lung injury C57 mouse model assessed as improvement in alveolar structure at 20 mg/kg, po thrice at 12 hrs interval by hematoxylin and eosin dye based light microscopy. As to conditions: time 36.0 hrs. Type of data set: functional, organism-based.
Data set [5] deals with THP-1. In words: Antiinflammatory activity against human THP-1 cells assessed as inhibition of LPS-stimulated TNFalpha mRNA expression pretreated for 2 hrs followed by stimulated with LPS by RT-qPCR analysis. The class given is functional, cell-based. Conditions: dose 2.5-10 µM.
Data set [6] relates to THP-1. In words: Antiinflammatory activity against human THP-1 cells assessed as inhibition of LPS-stimulated IL6 release measured after 30 mins by ELISA. Type of data set: functional, cell-based. Conditions: THP-1, 0.5 h. On the technique in general: In an ELISA, binding on a coated surface is turned into a signal by an enzyme label.
The subject of data set [7] is Mus musculus. Put plainly: Antiinflammatory activity against LPS-induced acute lung injury C57 mouse model assessed as decrease in LPS-induced IL-6 level in serum at 20 to 40 mg/kg, po thrice at 12 hrs interval followed 30 mins treated with LPS by ELISA. The class given is functional, organism-based. As to conditions: dose 20-40 mg/kg, time 36.5 hrs.
Data set [8] is described as follows: Oral bioavailability n Sprague-Dawley rat at 10 mg/kg measured upto 24 hrs by UPLC-MS/MS analysis. Type of data set: ADME, organism-based. Conditions: in vivo.
The target of data set [9] is T1, NF-kappa-B inhibitor alpha (Mus musculus) (UniProt Q9Z1E3).
T1 sequence (whole entry): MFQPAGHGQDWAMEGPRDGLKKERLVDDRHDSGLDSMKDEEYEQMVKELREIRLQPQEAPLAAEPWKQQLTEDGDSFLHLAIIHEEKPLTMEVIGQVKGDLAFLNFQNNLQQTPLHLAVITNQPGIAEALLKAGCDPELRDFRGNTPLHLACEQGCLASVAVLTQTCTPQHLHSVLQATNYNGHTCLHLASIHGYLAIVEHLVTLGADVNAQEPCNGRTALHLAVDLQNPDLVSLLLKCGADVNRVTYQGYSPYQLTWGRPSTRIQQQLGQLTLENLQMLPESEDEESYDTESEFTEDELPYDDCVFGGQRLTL
Put plainly: […] in mouse J774A.1 cells pretreated at 10 uM for 2 hrs followed by induced with LPS for 30 mins by Western blot analysis. Type of data set: cell-based. As to conditions: J774.1. (In general: A western blot detects proteins with antibodies after separation by electrophoresis.)

Data set [10] is described as follows: Subacute toxicity in ICR mouse assessed as pathological change in lung at 500 to 100 mg/kg, IG measured for 10 days by hematoxylin and eosin dye based light microscopy. The class given is organism-based. As to conditions: in vivo, po, 240 h, dose 500-100 mg/kg, time 10 day.
Data set [11] relates to Mus musculus. Put plainly: Antiinflammatory activity against LPS-induced acute lung injury C57 mouse model assessed as decrease in LPS-induced lung wet to dry weight ratio at 20 mg/kg, po thrice at 12 hrs interval. Type of data set: functional, organism-based.
In data set [12] the target is Transcription factor p65 (Mus musculus) (UniProt Q04207). Put plainly: Inhibition of P65 phosphorylation in mouse J774A.1 cells pretreated at 10 uM for 2 hrs followed by induced with LPS for 30 mins by Western blot analysis. Type of data set: cell-based. As to conditions: J774.1, time 2.5 hrs.
Chain of Transcription factor p65 (Mus musculus) (Q04207 whole entry): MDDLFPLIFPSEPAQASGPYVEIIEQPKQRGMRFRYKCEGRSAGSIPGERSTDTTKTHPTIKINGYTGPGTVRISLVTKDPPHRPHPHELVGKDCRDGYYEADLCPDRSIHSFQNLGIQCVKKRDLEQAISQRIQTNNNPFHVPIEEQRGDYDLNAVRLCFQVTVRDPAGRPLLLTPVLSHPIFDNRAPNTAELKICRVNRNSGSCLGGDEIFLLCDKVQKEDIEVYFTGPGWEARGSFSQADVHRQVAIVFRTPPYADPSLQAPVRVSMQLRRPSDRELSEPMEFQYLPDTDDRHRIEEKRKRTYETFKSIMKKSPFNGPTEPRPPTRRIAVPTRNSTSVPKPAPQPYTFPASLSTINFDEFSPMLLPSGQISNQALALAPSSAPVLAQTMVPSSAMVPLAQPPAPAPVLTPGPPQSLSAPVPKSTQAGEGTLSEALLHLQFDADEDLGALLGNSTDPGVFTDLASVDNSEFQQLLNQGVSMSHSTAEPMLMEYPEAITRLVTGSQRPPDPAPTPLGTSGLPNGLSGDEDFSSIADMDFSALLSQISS
For data set [13], the system named is Mus musculus. Put plainly: Antiinflammatory activity against LPS-induced acute lung injury C57 mouse model assessed as decrease in LPS-induced TNFalpha level in blood at 20 mg/kg, po thrice at 12 hrs interval. The class given is functional, organism-based.
For data set [14], the system named is Mus musculus. In words: Antiinflammatory activity against LPS-induced acute lung injury C57 mouse model assessed as decrease in LPS-induced IL-6 level in blood at 20 mg/kg, po thrice at 12 hrs interval. The class given is functional, organism-based.
Data set [15] concerns Mus musculus. In words: Antiinflammatory activity against LPS-induced acute lung injury C57 mouse model assessed as decrease in LPS-induced TNFalpha level in serum at 20 to 40 mg/kg, po thrice at 12 hrs interval followed 30 mins treated with LPS by ELISA. Type of data set: functional, organism-based. Conditions: dose 20-40 mg/kg, time 36.5 hrs.
The target in data set [16] is T2, Inhibitor of nuclear factor kappa-B kinase subunit beta (Homo sapiens) (UniProt O14920).
T2 sequence (whole entry): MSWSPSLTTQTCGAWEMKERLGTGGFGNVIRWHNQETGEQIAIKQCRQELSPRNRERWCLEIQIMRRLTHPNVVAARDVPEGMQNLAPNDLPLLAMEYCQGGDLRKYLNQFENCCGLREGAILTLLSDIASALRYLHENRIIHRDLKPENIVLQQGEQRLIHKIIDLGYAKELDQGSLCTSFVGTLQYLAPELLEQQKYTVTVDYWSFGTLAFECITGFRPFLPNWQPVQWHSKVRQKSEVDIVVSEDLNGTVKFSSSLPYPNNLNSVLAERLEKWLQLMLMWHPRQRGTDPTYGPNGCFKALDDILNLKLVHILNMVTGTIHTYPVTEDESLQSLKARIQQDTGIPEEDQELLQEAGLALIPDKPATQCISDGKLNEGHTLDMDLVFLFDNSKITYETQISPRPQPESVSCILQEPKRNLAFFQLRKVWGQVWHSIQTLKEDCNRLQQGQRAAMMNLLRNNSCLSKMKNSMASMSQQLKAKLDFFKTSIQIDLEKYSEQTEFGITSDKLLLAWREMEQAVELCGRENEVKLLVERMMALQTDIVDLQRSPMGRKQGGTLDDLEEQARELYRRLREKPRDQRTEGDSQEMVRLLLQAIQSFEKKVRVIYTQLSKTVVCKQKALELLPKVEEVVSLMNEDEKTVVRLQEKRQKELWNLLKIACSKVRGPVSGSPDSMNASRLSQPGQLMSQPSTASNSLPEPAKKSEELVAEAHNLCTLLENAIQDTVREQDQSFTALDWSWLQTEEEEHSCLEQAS
In words: Inhibition of IKKbeta (unknown origin) assessed as inhibition rate at 10 uM by SPR analysis relative to control. (In general: Surface plasmon resonance follows binding to a sensor surface in real time, without labels.)

Another data set relates to J774.A1. In words: Antiinflammatory activity against mouse J774A.1 cells assessed as inhibition of LPS-stimulated IL6 release measured after 30 mins by ELISA. The class given is functional, cell-based. Conditions: J774.A1, 0.5 h.
Data set [17] deals with Transcription factor p65 (Mus musculus) (UniProt Q04207). Put plainly: Inhibition of P65 entry into nucleus in mouse J774A.1 cells assessed as density quantification pretreated at 10 uM for 2 hrs followed by induced with LPS for 30 mins by immunofluorescence analysis. Type of data set: cell-based. Conditions: J774.1, time 2.5 hrs.
The test system of data set [18] is Mus musculus. Put plainly: Antiinflammatory activity against LPS-induced acute lung injury C57 mouse model assessed as decrease in LPS-induced neutrophile count in broncho alveolar lavage fluid at 20 mg/kg, po thrice at 12 hrs interval. Type of data set: functional, organism-based. Conditions: Bronchoalveolar lavage.
The target in data set [19] is Mitogen-activated protein kinase 9 (Homo sapiens, UniProt P45984). In words: Binding affinity to JNK2 (unknown origin) assessed as dissociation constant by SPR analysis.
Chain of Mitogen-activated protein kinase 9 (P45984 whole entry): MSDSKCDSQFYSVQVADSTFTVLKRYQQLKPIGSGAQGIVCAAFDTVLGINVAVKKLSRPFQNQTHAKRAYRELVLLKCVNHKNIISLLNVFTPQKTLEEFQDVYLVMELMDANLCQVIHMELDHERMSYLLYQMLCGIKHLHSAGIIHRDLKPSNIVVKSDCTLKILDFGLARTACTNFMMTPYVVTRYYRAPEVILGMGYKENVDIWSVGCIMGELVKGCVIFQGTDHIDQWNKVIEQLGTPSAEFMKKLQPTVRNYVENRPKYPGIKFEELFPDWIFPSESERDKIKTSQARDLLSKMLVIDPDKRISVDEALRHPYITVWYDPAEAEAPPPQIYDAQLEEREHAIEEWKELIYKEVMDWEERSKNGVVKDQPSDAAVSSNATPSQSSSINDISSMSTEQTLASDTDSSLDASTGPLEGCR
Data set [20] relates to Mus musculus. Put plainly: Antiinflammatory activity against LPS-induced acute lung injury C57 mouse model assessed as decrease in LPS-induced IL-6level in blood at 20 mg/kg, po thrice at 12 hrs interval. The class given is functional, organism-based.
The nature of data set [21]: Subacute toxicity in ICR mouse assessed as change in body weight at 500 to 100 mg/kg, IG measured for 10 days. As to conditions: in vivo, po, 240 h, dose 500-100 mg/kg, time 10 day. The class given is organism-based.

Calls of active or inactive are those of the source. The calls are words filed in the database; no cut-off is given here.

A word on the IC50: it is the concentration needed to halve the response being measured. One may read the inhibition as the change of the read-out against control, counted positive when it falls. As usually defined, the Kd is the concentration at which binding is half-saturated. On to `COc1cc2nccc(Oc3ccc(NC(=O)c4nn(-c5ccc(C)cc5)c(=O)cc4C)cc3)c2cc1OC`, for which the result (in the data set on Mus musculus [1]; in the data set on Mus musculus [7]; in [9]; in the data set on Mus musculus [13]; in the data set with Mus musculus [14]; in the data set with Mus musculus [15]) was Active. For the same compound, the result in the data set on Mus musculus [20] was Active. Also, the Activity result was “Non-Toxic” in [2]; “Non-Toxic” in data set [3]; “Dose-Dependent Effect” in the data set on THP-1 [5]; “Non-Toxic” in [10]; “Non-Toxic” in [21]. Besides, the outcome with Mus musculus [4], with Mus musculus [11] and in the data set with Mus musculus [18] was inactive. Further, the IC50 with THP-1 [6] was determined as 0.22 µM; in the data set with J774.A1 it was 7.11 µM. Moreover, the F in [8] worked out at 30.74%. Moreover, the inhibition entry in [12] and in [17] was “Active” throughout. In addition, the inhibition in [16] is -3.77%. In data set [19], the Kd amounted to 79.2 µM.
